# Reference: DBAASP
# Legend:
# Experiment in all cases: ≥ marks a high value that may be exact or a test limit, other limits are often not marked, values filed in µg/mL are converted to µM
# [1] = system: Staphylococcus aureus 2844
# [2] = system: Staphylococcus aureus FDA 486
# [3] = system: Staphylococcus aureus ATCC 29213
# [4] = system: Pseudomonas aeruginosa ATCC 27853
# [5] = system: Pseudomonas aeruginosa 15159
# [6] = system: Staphylococcus aureus ATCC 49476
# Staphylococcus aureus MR = system: Staphylococcus aureus MR
# Candida albicans = system: Candida albicans
# [7] = system: Escherichia coli NCTC 10418
# [8] = system: Staphylococcus aureus NCTC 12981
# Escherichia coli = system: Escherichia coli
# Pasteurella multocida = system: Pasteurella multocida
# [9] = system: Enterococcus faecalis NCTC 12201
# Bacillus cereus = system: Bacillus cereus
# [10] = system: Pseudomonas aeruginosa PAO1
# Staphylococcus aureus 15 = system: Staphylococcus aureus 15
# Listeria innocua = system: Listeria innocua
# Staphylococcus aureus = system: Staphylococcus aureus
# [11] = system: Candida albicans NCPF 3179
# Leuconostoc lactis = system: Leuconostoc lactis
# Bacillus cereus C737 = system: Bacillus cereus C737
# [12] = system: Klebsiella pneumoniae NCTC 13368
# [13] = system: Acinetobacter baumannii ATCC 17978
# [14] = system: Escherichia coli NCTC 12923
# Micrococcus luteus = system: Micrococcus luteus
# Escherichia coli UB1005 = system: Escherichia coli UB1005
# [15] = system: Enterococcus faecalis NCTC 775
# [16] = system: Pseudomonas aeruginosa NCTC 13437
# Streptococcus uberis = system: Streptococcus uberis
# [17] = system: Staphylococcus epidermidis
# [18] = system: Staphylococcus aureus ATCC 9144
smiles,measurement,setting,value
CC(=O)N[C@@H](CCC(=O)O)C(=O)N[C@@H](Cc1c[nH]c2ccccc12)C(=O)N[C@@H](CCCCN)C(=O)N[C@@H](CCCN=C(N)N)C(=O)N[C@@H](Cc1c[nH]c2ccccc12)C(=O)N[C@H](C(=O)N[C@@H](CCC(N)=O)C(=O)N[C@@H](CCCN=C(N)N)C(=O)N[C@@H](Cc1c[nH]c2ccccc12)C(=O)N[C@@H](CCCCN)C(=O)N[C@@H](CC(=O)O)C(=O)N[C@@H](Cc1c[nH]c2ccccc12)C(=O)N[C@@H](CC(C)C)C(=O)N[C@@H](CCCN=C(N)N)C(=O)N[C@@H](CC(N)=O)C(=O)N[C@@H](CC(C)C)C(=O)N[C@H](C(N)=O)C(C)C)C(C)C [EWKRWVQRWKDWLRNLV],MIC,[1],5 µM
same,MIC,[2],5 µM
same,MIC,[3],10 µM
same,MIC,[4],10 µM
same,MIC,[5],10 µM
CC[C@H](C)[C@H](NC(=O)[C@H](C)NC(=O)[C@H](CCCCN)NC(=O)CNC(=O)[C@H](C)NC(=O)[C@H](CO)NC(=O)[C@H](Cc1ccccc1)NC(=O)[C@H](CC(C)C)NC(=O)CNC(=O)CNC(=O)[C@@H](NC(=O)[C@@H](NC(=O)[C@H](Cc1cnc[nH]1)NC(=O)[C@H](Cc1cnc[nH]1)NC(=O)[C@@H](NC(=O)[C@@H](N)Cc1ccccc1)[C@@H](C)CC)[C@@H](C)CC)[C@@H](C)CC)C(=O)N[C@@H](Cc1cnc[nH]1)C(=O)N[C@@H](CO)C(=O)N[C@@H](CC(C)C)C(=O)N[C@H](C(=O)N[C@@H](Cc1cnc[nH]1)C(=O)N[C@@H](CCCN=C(N)N)C(=O)N[C@@H](CCCN=C(N)N)C(=O)N[C@@H](CCCN=C(N)N)C(=O)N[C@@H](CCCN=C(N)N)C(=O)O)[C@@H](C)CC [FIHHIIGGLFSAGKAIHSLIHRRRR],MIC,[4],88.5 µM
same,MIC,[6],11.1 µM
same,MIC,Staphylococcus aureus MR,11.1 µM
same,MIC,Candida albicans,88.5 µM
NCCCC[C@H](NC(=O)[C@H](Cc1ccccc1)NC(=O)[C@H](CCCCN)NC(=O)[C@@H](N)Cc1ccccc1)C(=O)N[C@@H](Cc1ccccc1)C(N)=O [FKFKF],MIC,[7],≥ 179 µM
same,MIC,[8],≥ 179 µM
CC[C@H](C)[C@H](NC(=O)[C@H](CC(=O)O)NC(=O)[C@H](Cc1ccccc1)NC(=O)[C@H](CC(C)C)NC(=O)CN)C(=O)N[C@H](C(=O)N[C@@H](CCCCN)C(=O)N[C@@H](CCCCN)C(=O)N[C@H](C(=O)N[C@H](C(=O)NCC(=O)N[C@@H](C)C(=O)N[C@@H](Cc1ccccc1)C(=O)NCC(=O)N[C@@H](CO)C(=O)N[C@@H](CC(C)C)C(N)=O)C(C)C)C(C)C)C(C)C [GLFDIVKKVVGAFGSL],MIC,Escherichia coli,> 60.6 µM
same,MIC,Pasteurella multocida,≥ 60.6 µM
same,MIC,[9],≥ 38.8 µM
same,MIC,Bacillus cereus,30.3 µM
same,MIC,[10],> 77.6 µM
same,MIC,Staphylococcus aureus 15,19.4 µM
same,MIC,Listeria innocua,30.3 µM
same,MIC,Staphylococcus aureus,30.3 µM
same,MIC,[11],9.7 µM
same,MIC,Leuconostoc lactis,7.27 µM
same,MIC,Bacillus cereus C737,≥ 77.6 µM
same,MIC,[12],≥ 38.8 µM
same,MIC,[13],4.85 µM
same,MIC,[14],9.7 µM
same,MIC,Micrococcus luteus,≥ 60.6 µM
same,MIC,Escherichia coli UB1005,≥ 38.8 µM
same,MIC,[15],27.4 µM
same,MIC,[16],≥ 77.6 µM
same,MIC,Streptococcus uberis,≥ 60.6 µM
same,MIC,[17],≥ 60.6 µM
same,MIC,[18],4.85 µM
